Patent US12209102B2, “Heterocyclic compounds and uses thereof” (Kumquat Biosciences Inc., priority 2022, dated 2025)

Legend:
K-Ras G12D = biological target: T1, K-Ras G12D (Homo sapiens, UniProt P01116, G12D); assay: HTRF resonance energy transfer assay, K-Ras G12D / SOS1 interaction; format: biochemical; conditions: HTRF assay of Example 5; read-out: IC50 against K-Ras G12D
T1 construct: made in house; host or cells: E. coli BL21 (DE3)
Summary of the method: (§1)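 GST-tagged K-Ras (WT or mutant) bound to anti-GST-Eu donor was mixed with His-hSOS1 bound to anti-6His-XL665 acceptor in ~5 mM HEPES pH 7.4, 150 mM NaCl, 1 mM DTT, 0.05% BSA, 0.0025% Igepal. HTRF (ex 337, em 620/665 nm) was read after ~10 min or longer. IC50 came from the 665/620 ratio over duplicates from 10 μM to 0.01 μM.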

K-Ras G12S = biological target: T2, K-Ras G12S (Homo sapiens, UniProt P01116, G12S); assay: HTRF resonance energy transfer assay, K-Ras G12S / SOS1 interaction; format: biochemical; conditions: HTRF assay of Example 5; read-out: IC50 against K-Ras G12S
T2 construct: made in house; host or cells: E. coli BL21 (DE3)
Summary of the method: as §1

K-Ras G12V = biological target: T3, K-Ras G12V (Homo sapiens, UniProt P01116, G12V); assay: HTRF resonance energy transfer assay, K-Ras G12V / SOS1 interaction; format: biochemical; conditions: HTRF assay of Example 5; read-out: IC50 against K-Ras G12V
T3 construct: made in house; host or cells: E. coli BL21 (DE3)
Summary of the method: as §1

K-Ras WT = biological target: T4, K-Ras WT (Homo sapiens, UniProt P01116); assay: HTRF resonance energy transfer assay, K-Ras WT / SOS1 interaction; format: biochemical; conditions: HTRF assay of Example 5; read-out: IC50 against K-Ras WT
T4 construct: made in house; host or cells: E. coli BL21 (DE3)
Summary of the method: as §1

SW620 cells = assay: Ras cellular assay, growth of cells with K-Ras G12V mutation (CellTiter-Glo); format: cell-based; conditions: Homo sapiens, SW-620; cell growth, Example 9, G12V mutation; read-out: IC50 against SW620 cells
Experimental: For example, this assay can be also used to assess a selective growth inhibition of a mutant Ras protein relative to a wildtype, or relative to a different mutant Ras protein.
SW620 (ATCC CCL-227) and Capan-1 (ATCC HTB-79) cell lines comprise a G12V mutation and can be used to assess Ras cellular signaling in vitro, e.g., in response to the compounds herein. SW620 culture medium is prepared with RPMI-1640 and 10% heat-inactivated FBS. Capan-1 culture medium is prepared with RPMI-1640 and 10% heat-inactivated FBS. A CellTiter-Glo (CTG) luminescent based assay (Promega) is used to assess growth of the cells, as a measurement of the ability of the compounds herein to inhibit Ras signaling in the cells. The cells (e.g., 800 per well) are seeded in their respective culture medium in standard tissue culture-treated 384-well format plates (Falcon #08-772-116) or ultra-low attachment surface 384-well format plates (S-Bio #MS-9384WZ). The day after plating, cells are treated with a dilution series (e.g., a 10 point 3-fold dilution series) of the compounds herein (e.g., approximately 40 μL final volume per well). Cell viability can be monitored (e.g., approximately 6 days later) according to the manufacturer's recommended instructions, where the CellTiter-Glo reagent is added (e.g., approximately 10 μL), vigorously mixed, covered, and placed on a plate shaker (e.g., approximately for 20 min) to ensure sufficient cell lysis prior to assessment of luminescent signal. The IC50 values are determined using the four parameter fit. The resulting IC50 value is a measurement of the ability of the compounds herein to reduce cell growth of Ras-driven cells (e.g., tumor cell lines) in vitro and/or in vivo.

T1 sequence (P01116 1-188 isoform P01116-2 G12D): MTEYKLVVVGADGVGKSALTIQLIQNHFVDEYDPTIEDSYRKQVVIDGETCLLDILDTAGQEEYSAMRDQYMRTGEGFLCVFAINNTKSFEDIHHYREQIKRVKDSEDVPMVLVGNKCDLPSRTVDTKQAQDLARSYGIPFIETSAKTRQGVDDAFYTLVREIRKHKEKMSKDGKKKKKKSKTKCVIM
T4 sequence (P01116 1-188 isoform P01116-2): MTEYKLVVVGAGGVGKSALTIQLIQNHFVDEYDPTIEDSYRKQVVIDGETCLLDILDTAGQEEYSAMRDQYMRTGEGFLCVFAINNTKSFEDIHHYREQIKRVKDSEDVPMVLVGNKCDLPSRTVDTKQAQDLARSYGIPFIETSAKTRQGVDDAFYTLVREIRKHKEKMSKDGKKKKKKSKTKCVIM
T2 sequence (P01116 1-188 isoform P01116-2 G12S): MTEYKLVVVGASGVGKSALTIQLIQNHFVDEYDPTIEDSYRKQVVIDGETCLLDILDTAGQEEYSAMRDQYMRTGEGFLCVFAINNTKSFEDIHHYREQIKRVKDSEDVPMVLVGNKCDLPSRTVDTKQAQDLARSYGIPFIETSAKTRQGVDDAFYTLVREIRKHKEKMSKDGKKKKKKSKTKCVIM
T3 sequence (P01116 1-188 isoform P01116-2 G12V): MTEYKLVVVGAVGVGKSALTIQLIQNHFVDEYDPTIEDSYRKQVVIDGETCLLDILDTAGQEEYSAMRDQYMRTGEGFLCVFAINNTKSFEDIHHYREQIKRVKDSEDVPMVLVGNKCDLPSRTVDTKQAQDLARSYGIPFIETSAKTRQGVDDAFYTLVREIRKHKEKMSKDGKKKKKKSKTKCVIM

Row | SMILES | IC50 (K-Ras G12D) [nM] | IC50 (K-Ras G12S) [nM] | IC50 (K-Ras G12V) [nM] | IC50 (K-Ras WT) [nM] | IC50 (SW620 cells) [nM]
1 | CC1COc2c(Cl)c(-c3ccc(F)c4sc(N)c(C#N)c34)c(F)c3nc(OC[C@@]45CCCN4C[C@H](F)C5)nc(c23)N1CC(F)F (single isomer, unassigned) [Compound 616] | < 100 | < 100 | < 100 | < 100 | < 5000
2 | N#Cc1c(N)sc2c(F)ccc(-c3c(Cl)c4c5c(nc(OC[C@@]67CCCN6C[C@H](F)C7)nc5c3F)N(CC(F)F)C(CC3CC3C#N)CO4)c12 (single isomer, unassigned) [Compound 674] | < 100 |  | < 100 | < 100 | < 5000
3 | N#Cc1c(N)sc2c(F)ccc(-c3c(Cl)c4c5c(nc(OC[C@@]67CCCN6C[C@H](F)C7)nc5c3F)N(CC(F)F)[C@@H](C=C(F)F)CO4)c12 (single isomer, unassigned) [Compound 751] | < 100 | < 100 | < 100 | < 100 | < 5000
4 | CN(C)C(=O)C1CC(N2CCOc3c(Cl)c(-c4ccc(F)c5sc(N)c(C#N)c45)c(F)c4nc(OC[C@@]56CCCN5C[C@H](F)C6)nc2c34)C1 (single isomer, unassigned) [Compound 754] | < 100 | < 100 | < 100 | < 100 | < 5000
5 | N#Cc1c(N)sc2c(F)ccc(-c3c(Cl)c4c5c(nc(OC[C@@]67CCCN6C[C@H](F)C7)nc5c3F)N(CC3CC3C#N)[C@@H](C3(O)CC3)CO4)c12 (single isomer, unassigned) [Compound 821] | < 100 | < 100 | < 100 | < 100 | < 5000
6 | CC[C@H]1COc2c(Cl)c(-c3ccc(F)c4sc(N)c(C#N)c34)c(F)c3nc(OC[C@@]45CCCN4C[C@H](F)C5)nc(c23)N1CC(F)F [Compound 619, 2-amino-4-((5S)-8-chloro-4-(2,2-difluoroethyl)-5-ethyl-10-fluoro-2-(((2R,7aS)-2-fluorotetrahydro-1H-pyrrolizin-7a(5H)-yl)methoxy)-5,6-dihydro-4H-[1,4]oxazepino[5,6,7-de]quinazolin-9-yl)-7-fluorobenzo[b]thiophene-3-carbonitrile] | < 100 | < 100 | < 100 | < 100 | < 5000
7 | COC(C)[C@H]1COc2c(Cl)c(-c3ccc(F)c4sc(N)c(C#N)c34)c(F)c3nc(OC[C@@]45CCCN4C[C@H](F)C5)nc(c23)N1CC(F)F (stereo partly drawn) [Compound 630, 2-amino-4-((5R)-8-chloro-4-(2,2-difluoroethyl)-10-fluoro-2-(((2R,7aS)-2-fluorotetrahydro-1H-pyrrolizin-7a(5H)-yl)methoxy)-5-(1-methoxyethyl)-5,6-dihydro-4H-[1,4]oxazepino[5,6,7-de]quinazolin-9-yl)-7-fluorobenzo[b]thiophene-3-carbonitrile] | < 100 | < 100 | < 100 | < 100 | < 5000
8 | CC(O)C1COc2c(Cl)c(-c3ccc(F)c4sc(N)c(C#N)c34)c(F)c3nc(OC[C@@]45CCCN4C[C@H](F)C5)nc(c23)N1CC1CCNC1 (stereo partly drawn) [Compound 632, 2-amino-4-(8-chloro-10-fluoro-2-(((2R,7aS)-2-fluorotetrahydro-1H-pyrrolizin-7a(5H)-yl)methoxy)-5-(1-hydroxyethyl)-4-(pyrrolidin-3-ylmethyl)-5,6-dihydro-4H-[1,4]oxazepino[5,6,7-de]quinazolin-9-yl)-7-fluorobenzo[b]thiophene-3-carbonitrile] | < 100 | < 100 | < 100 | < 100 | < 5000
9 | CN(C)C1CCC(N2CCOc3c(Cl)c(-c4ccc(F)c5sc(N)c(C#N)c45)c(F)c4nc(OC[C@@]56CCCN5C[C@H](F)C6)nc2c34)C1 (stereo partly drawn) [Compound 677, 2-amino-4-(8-chloro-4-(3-(dimethylamino)cyclopentyl)-10-fluoro-2-(((2R,7aS)-2-fluorotetrahydro-1H-pyrrolizin-7a(5H)-yl)methoxy)-5,6-dihydro-4H-[1,4]oxazepino[5,6,7-de]quinazolin-9-yl)-7-fluorobenzo[b]thiophene-3-carbonitrile] | < 100 | < 100 | < 100 | < 100 | < 5000
10 | CN(CCCN1c2nc(OC[C@@]34CCCN3C[C@H](F)C4)nc3c(F)c(-c4ccc(F)c5sc(N)c(C#N)c45)c(Cl)c(c23)OCC1CC#N)C(=O)[C@H]1CN1 (stereo partly drawn) [Compound 709, (2R)—N-(3-(9-(2-amino-3-cyano-7-fluorobenzo[b]thiophen-4-yl)-8-chloro-5-(cyanomethyl)-10-fluoro-2-(((2R,7aS)-2-fluorotetrahydro-1H-pyrrolizin-7a(5H)-yl)methoxy)-5,6-dihydro-4H-[1,4]oxazepino[5,6,7-de]quinazolin-4-yl)propyl)-N-methylaziridine-2-carboxamide] | < 100 | < 100 | < 100 | < 100 | < 5000
11 | CC(C)[C@H](N)C(=O)N1CCC(N2C[C@H](C)Oc3c(Cl)c(-c4ccc(F)c5sc(N)c(C#N)c45)c(F)c4nc(OC[C@@]56CCCN5C[C@H](F)C6)nc2c34)C1 (stereo partly drawn) [Compound 714, 4-((6S)-4-(1-(L-valyl)pyrrolidin-3-yl)-8-chloro-10-fluoro-2-(((2R,7aS)-2-fluorotetrahydro-1H-pyrrolizin-7a(5H)-yl)methoxy)-6-methyl-5,6-dihydro-4H-[1,4]oxazepino[5,6,7-de]quinazolin-9-yl)-2-amino-7-fluorobenzo[b]thiophene-3-carbonitrile] | < 100 | < 100 | < 100 | < 100 | < 5000
12 | N#Cc1c(N)sc2c(F)ccc(-c3c(Cl)c4c5c(nc(OC[C@@]67CCCN6C[C@H](F)C7)nc5c3F)N(CC(F)F)C(C3CCCN3)CO4)c12 (stereo partly drawn) [Compound 784, 2-amino-4-(8-chloro-4-(2,2-difluoroethyl)-10-fluoro-2-(((2R,7aS)-2-fluorotetrahydro-1H-pyrrolizin-7a(5H)-yl)methoxy)-5-(pyrrolidin-2-yl)-5,6-dihydro-4H-[1,4]oxazepino[5,6,7-de]quinazolin-9-yl)-7-fluorobenzo[b]thiophene-3-carbonitrile] | < 100 |  | < 100 |  | < 5000
13 | CS(=O)(=O)NCC1COc2c(Cl)c(-c3ccc(F)c4sc(N)c(C#N)c34)c(F)c3nc(OC[C@@]45CCCN4C[C@H](F)C5)nc(c23)N1CC(F)F (stereo partly drawn) [Compound 847, N-((9-(2-amino-3-cyano-7-fluorobenzo[b]thiophen-4-yl)-8-chloro-4-(2,2-difluoroethyl)-10-fluoro-2-(((2R,7aS)-2-fluorotetrahydro-1H-pyrrolizin-7a(5H)-yl)methoxy)-5,6-dihydro-4H-[1,4]oxazepino[5,6,7-de]quinazolin-5-yl)methyl)methanesulfonamide] |  |  | < 100 |  | < 5000
14 | C[C@H]1CN(CC2(N(C)C)CCC2)c2nc(OC[C@@]34CCCN3C[C@H](F)C4)nc3c(F)c(-c4ccc(F)c5sc(N)c(C#N)c45)c(Cl)c(c23)O1 [Compound 978, 2-amino-4-((6S)-8-chloro-4-((1-(dimethylamino)cyclobutyl)methyl)-10-fluoro-2-(((2R,7aS)-2-fluorotetrahydro-1H-pyrrolizin-7a(5H)-yl)methoxy)-6-methyl-5,6-dihydro-4H-[1,4]oxazepino[5,6,7-de]quinazolin-9-yl)-7-fluorobenzo[b]thiophene-3-carbonitrile] |  | < 100 | < 100 |  | < 5000
